Laboratory results as given in US9901638B2, “Composition and method for treating an autoimmune disease” (RedHill Biopharma Ltd., priority 2011, dated 2018).

Test system: EAE relapse (remitting-relapsing MS model)
Test: EAE relapse study (PLP139-151/CFA), therapeutic treatment
Format: in vivo
Settings: groups of 15; treatment from enrolment to Day 39; vehicle group 8 mice; FTY-720 3 mg/kg p.o. QD, RHB-104 p.o. BID
Source text: Disease was induced by immunizing mice on Day 0 with PLP139-151 peptide emulsified in complete Freund's adjuvant (CFA).
To assess disease development, mice were weighed three times per week (Monday, Wednesday and Friday) from the time of immunization and scored daily for clinical signs of EAE starting on Day 9.
Enrollment of mice into groups occurred on the second day of clinical signs of EAE for each mouse. Mice were enrolled into treatment groups as they develop signs of EAE (rolling enrolment).
45 mice were enrolled into 3 groups of 15 and the treatment started on the day of enrolment. Assignment was balanced to achieve similar scores between the groups at enrolment.
Group 1—Vehicle (PBS), p.o., BID, 5 mL/kg (negative control)
Group 2—treated with FTY-720 (Fingolimod, Gilenya) 3 mg/kg, p.o., QD (a drug used for treatment of MS and used as a positive control)
Group 3—treated with RHB-104, p.o., BID, 5 mL/kg
Treatment started on the day of enrolment and continued until Day 39.
All dosing was performed at the same time (+/−1 hour) each day. […]
Mice were scored daily from Day 9 to Day 40, and body weight was measured three times/week (Monday, Wednesday and Friday), starting before immunization (Day −1). […]
Readouts were EAE scores on the scale 0-5 in 0.5 unit increments, and changes in body weight.
EAE was scored on scale 0 to 5 as described above.

SMILES: CCCCCCCCc1ccc(CCC(N)(CO)CO)cc1 [FTY-720, Fingolimod]
- Number of mice showing relapse: 2 mice
